Results published in article PMC6160999, “Pharmacokinetics, Tissue Distribution and Excretion of a Novel Diuretic (PU-48) in Rats” (Pharmaceutics, 2018).
Where “and” joins values, the source holds several entries; their conditions need not be identical. Equal entries are not always repeated. Where two headings read alike, the source gives them in different places.

Tests used:
[1] = cited from earlier work
[2] = Urine and feces excretion after single oral PU-48 SNEDDS; type: in vivo; conditions: rat, oral PU-48 SNEDDS 12 mg/kg
Protocol: (§1) Internal standard (IS, 25 μL) was added to 50 μL plasma, urine, or bile sample in a clean tube, placed into a water bath at 37 °C, and dried under a gentle stream of nitrogen gas, followed by the addition of 0.5 mL of ethyl acetate for liquid-liquid extraction. The mixture was shaken by a vortex mixer for 3 min, and then centrifuged at 8000 rpm (4200× g) for 10 min at 4 °C. After centrifugation, the upper organic phase was transferred into a clean centrifuge tube and then dried it again. The combined upper organic phases were evaporated to dryness at 37 °C under a gentle stream of nitrogen gas. The residue was reconstituted with 50 μL acetonitrile and then centrifuged at 13,000 rpm (12,000× g) for 10 min at 4 °C, the upper liquid was transferred into sample vials. Finally, 5 μL aliquots were injected into the LC–MS/MS system to analyze. Each tissue samples were homogenized in normal saline (0.9% NaCl, 1:3, w/v), and then centrifuged at 10,000× g for 10 min to get the supernatant. Other steps were the same as plasma sample preparation.
Feces samples were homogenized in 0.9% NaCl solution (1 g/10 mL), vortexed for 1 min and then centrifuged at 1200× g for 15 min to gather the supernatant. A volume of 25 μL of IS was added to 500 μL mixture in a clean tube, placed into a water bath at 37 °C and dried under a gentle stream of nitrogen gas, followed by the addition of 2 mL of ethyl acetate for twice liquid-liquid extraction (total 4 mL). The residue was reconstituted with 50 μL mobile phase and then 5 μL aliquots were injected into the HPLC system to analyze.
(§2) Six male rats were given single orally administration of PU-48 (12 mg/kg, 1.2 mg/mL in the SNEDDS formulation) and housed in separate stainless-steel metabolism cages. Both feces and urine samples were collected at 0–1, 1–2, 2–4, 4–6, 6–8, 8–12, 12–24, 24–48, 48–72 and 72–96 h. In a separate study, bile samples were collected 0–1, 1–2, 2–4, 4–6, 6–8, 8–12, 12–24, 24–48, 48–72 and 72–96 h after oral administration of PU-48 (12 mg/kg, 1.2 mg/mL in the SNEDDS formulation) to six bile duct-cannulated rats.

[3] = Bile excretion in bile duct-cannulated rats; type: in vivo; conditions: bile duct-cannulated rat, oral PU-48 SNEDDS 12 mg/kg
Protocol: as §1, §2

SMILES: COC(=O)c1sc2nc3ccc(OC)cc3cc2c1N [PU-48, Methyl 3-amino-6-methoxythieno [2,3-b] quinoline-2-carboxylate]
- Diuretic activity ([1]; rodents, compared to the other thienoquinolin lead compounds): more potent diuretic activity
- Diuretic activity ([1]; wild-type and UT-gene knockout mice): potent diuretic activity
- Accumulative Excretion Amount, urine ([2]; 0–1 h): 61.2 ± 13.4 ng
- Accumulative Excretion Percentage, urine ([2]; 0–1 h): 0.0022 ± 0.0005%
- Excretion Amount, urine ([2]; 0–1 h): 61.2 ± 13.4 ng
- PU-48 Concentration in urine ([2]; 0–1 h): 627.9 ± 94.1 ng/mL
- Accumulative Excretion Amount, feces ([2]; 0–6 h): 0.1 µg
- Accumulative Excretion Percentage, feces ([2]; 0–6 h): 0.0022%
- Excretion Amount, feces ([2]; 0–6 h): 0.1 µg
- PU-48 Concentration in feces ([2]; 0–6 h): 0.1 µg/mL
- Accumulative Excretion Amount, urine ([2]; 1–2 h): 131.8 ± 37.9 ng
- Accumulative Excretion Percentage, urine ([2]; 1–2 h): 0.0047 ± 0.0015%
- Excretion Amount, urine ([2]; 1–2 h): 80.8 ± 41.0 ng
- PU-48 Concentration in urine ([2]; 1–2 h): 376.3 ± 184.2 ng/mL
- Accumulative Excretion Amount, urine ([2]; 2–4 h): 203.6 ± 48.4 ng
- Accumulative Excretion Percentage, urine ([2]; 2–4 h): 0.0073 ± 0.0018%
- Excretion Amount, urine ([2]; 2–4 h): 107.7 ± 30.0 ng
- PU-48 Concentration in urine ([2]; 2–4 h): 97.3 ± 20.1 ng/mL
- Accumulative Excretion Amount, urine ([2]; 4–6 h): 345.3 ± 107.2 ng
- Accumulative Excretion Percentage, urine ([2]; 4–6 h): 0.0123 ± 0.0038%
- Excretion Amount, urine ([2]; 4–6 h): 141.7 ± 78.0 ng
- PU-48 Concentration in urine ([2]; 4–6 h): 156.3 ± 65.6 ng/mL
- Accumulative Excretion Amount, feces ([2]; 6–8 h): 0.4 µg
- Accumulative Excretion Percentage, feces ([2]; 6–8 h): 0.0128%
- Excretion Amount, feces ([2]; 6–8 h): 0.4 µg
- PU-48 Concentration in feces ([2]; 6–8 h): 0.4 µg/mL
- Accumulative Excretion Amount, urine ([2]; 6–12 h): 496.4 ± 129.9 ng
- Accumulative Excretion Percentage, urine ([2]; 6–12 h): 0.0178 ± 0.0048%
- Excretion Amount, urine ([2]; 6–12 h): 151.1 ± 94.8 ng
- PU-48 Concentration in urine ([2]; 6–12 h): 83.6 ± 56.6 ng/mL
- Accumulative Excretion Amount, feces ([2]; 8–12 h): 12.5 ± 14.6 µg
- Accumulative Excretion Percentage, feces ([2]; 8–12 h): 0.44 ± 0.51%
- Excretion Amount, feces ([2]; 8–12 h): 12.5 ± 14.5 µg
- PU-48 Concentration in feces ([2]; 8–12 h): 6.9 ± 6.5 µg/mL
- Accumulative Excretion Amount, feces ([2]; 12–24 h): 31.5 ± 21.4 µg
- Accumulative Excretion Amount, urine ([2]; 12–24 h): 850.7 ± 589.4 ng
- Accumulative Excretion Percentage, feces ([2]; 12–24 h): 1.11 ± 0.73%
- Accumulative Excretion Percentage, urine ([2]; 12–24 h): 0.0306 ± 0.0216%
- Excretion Amount, feces ([2]; 12–24 h): 19.0 ± 11.3 µg
- Excretion Amount, urine ([2]; 12–24 h): 354.3 ± 485.8 ng
- PU-48 Concentration in feces ([2]; 12–24 h): 9.4 ± 5.3 µg/mL
- PU-48 Concentration in urine ([2]; 12–24 h): 65.3 ± 94.6 ng/mL
- Accumulative Excretion Percentage, urine ([2]; 24–36 h): 0.0380 ± 0.0250%
- Excretion Amount, urine ([2]; 24–36 h): 207.5 ± 123.7 ng
- PU-48 Concentration in urine ([2]; 24–36 h): 45.0 ± 36.9 ng/mL
- Accumulative Excretion Amount, feces ([2]; 24–48 h): 41.0 ± 21.7 µg
- Accumulative Excretion Percentage, feces ([2]; 24–48 h): 1.45 ± 0.74%
- Excretion Amount, feces ([2]; 24–48 h): 9.5 ± 9.5 µg
- PU-48 Concentration in feces ([2]; 24–48 h): 1.8 ± 1.9 µg/mL
- Excretion Amount, urine ([2]; 36–48 h): 158.4 ± 125.3 ng
- PU-48 Concentration in urine ([2]; 36–48 h): 25.6 ± 27.4 ng/mL
- Accumulative Excretion Amount, feces ([2]; 48–72 h): 44.3 ± 22.1 µg
- Accumulative Excretion Amount, urine ([2]; 48–72 h): 1319.8 ± 734.0 ng
- Accumulative Excretion Percentage, feces ([2]; 48–72 h): 1.56 ± 0.75%
- Accumulative Excretion Percentage, urine ([2]; 48–72 h): 0.0473 ± 0.0267%
- Excretion Amount, feces ([2]; 48–72 h): 3.2 ± 4.4 µg
- Excretion Amount, urine ([2]; 48–72 h): 103.2 ± 94.5 ng
- PU-48 Concentration in feces ([2]; 48–72 h): 0.5 ± 0.7 µg/mL
- PU-48 Concentration in urine ([2]; 48–72 h): 7.5 ± 5.9 ng/mL
- Accumulative Excretion Amount, urine ([2]; 72-96 h (within 96 h)): 1458.5 ± 733.1 ng
- Accumulative Excretion Percentage, urine ([2]; 72-96 h (within 96 h)): 0.0523 ± 0.0267% and 0.052 ± 0.0267% and 0.052%
- Excretion Amount, urine ([2]; 72-96 h): 138.7 ± 101.2 ng
- PU-48 Concentration in urine ([2]; 72-96 h): 9.0 ± 5.4 ng/mL
- Accumulative Excretion Amount, feces ([2]; 72–96 h (within 96 h)): 45.5 ± 22.0 µg
- Accumulative Excretion Percentage, feces ([2]; 72–96 h (within 96 h)): 1.61 ± 0.74% and 1.60%
- Excretion Amount, feces ([2]; 72–96 h): 1.2 ± 1.4 µg
- PU-48 Concentration in feces ([2]; 72–96 h): 0.2 ± 0.2 µg/mL
- Total excretion of PU-48 parent drug in the urine, feces, and bile ([2]; within 96 h): less than 2%
- Accumulative Excretion Amount, bile ([3]; 0–1 h): 78.5 ± 60.3 ng
- Accumulative Excretion Percentage, bile ([3]; 0–1 h): 0.0027 ± 0.0021%
- Excretion Amount, bile ([3]; 0–1 h): 78.5 ± 60.3 ng
- PU-48 Concentration in bile ([3]; 0–1 h): 143.8 ± 72.5 ng/mL
- Accumulative Excretion Amount, bile ([3]; 1–2 h): 153.6 ± 115.5 ng
- Accumulative Excretion Percentage, bile ([3]; 1–2 h): 0.0054 ± 0.0041%
- Excretion Amount, bile ([3]; 1–2 h): 75.2 ± 70.3 ng
- PU-48 Concentration in bile ([3]; 1–2 h): 123.1 ± 44.3 ng/mL
- Accumulative Excretion Amount, bile ([3]; 2–4 h): 218.9 ± 128.9 ng
- Accumulative Excretion Percentage, bile ([3]; 2–4 h): 0.0076 ± 0.0046%
- Excretion Amount, bile ([3]; 2–4 h): 65.3 ± 39.8 ng
- PU-48 Concentration in bile ([3]; 2–4 h): 84.7 ± 20.1 ng/mL
- Accumulative Excretion Percentage, bile ([3]; 4–6 h): 0.0085 ± 0.0044%
- Excretion Amount, bile ([3]; 4–6 h): 24.5 ± 14.3 ng
- PU-48 Concentration in bile ([3]; 4–6 h): 47.6 ± 19.4 ng/mL
- Accumulative Excretion Percentage, bile ([3]; 6–8 h): 0.0091 ± 0.0042%
- Excretion Amount, bile ([3]; 6–8 h): 18.7 ± 13.4 ng
- PU-48 Concentration in bile ([3]; 6–8 h): 41.1 ± 21.9 ng/mL
- Accumulative Excretion Amount, bile ([3]; 8–12 h): 301.8 ± 105.8 ng
- Accumulative Excretion Percentage, bile ([3]; 8–12 h): 0.0105 ± 0.0037%
- Excretion Amount, bile ([3]; 8–12 h): 39.7 ± 45.9 ng
- PU-48 Concentration in bile ([3]; 8–12 h): 33.3 ± 17.4 ng/mL
- Accumulative Excretion Amount, bile ([3]; 12–24 h): 339.9 ± 122.8 ng
- Accumulative Excretion Percentage, bile ([3]; 12–24 h): 0.0118 ± 0.0042%
- Excretion Amount, bile ([3]; 12–24 h): 38.1 ± 37.4 ng
- PU-48 Concentration in bile ([3]; 12–24 h): 33.4 ± 15.5 ng/mL
- Accumulative Excretion Amount, bile ([3]; 24–48 h): 350.7 ± 124.1 ng
- Accumulative Excretion Percentage, bile ([3]; 24–48 h): 0.0122 ± 0.0043%
- Excretion Amount, bile ([3]; 24–48 h): 10.8 ± 3.2 ng
- PU-48 Concentration in bile ([3]; 24–48 h): 9.4 ± 5.4 ng/mL
- Accumulative Excretion Amount, bile ([3]; 48–72 h): 355.5 ± 120.8 ng
- Accumulative Excretion Percentage, bile ([3]; 48–72 h): 0.0123 ± 0.0042%
- Excretion Amount, bile ([3]; 48–72 h): 4.8 ± 4.7 ng
- PU-48 Concentration in bile ([3]; 48–72 h): 5.1 ± 3.7 ng/mL
- Accumulative Excretion Amount, bile ([3]; 72–96 h (within 96 h)): 357.5 ± 120.1 ng
- Accumulative Excretion Percentage, bile ([3]; 72–96 h (within 96 h)): 0.0124 ± 0.0041% and 0.0124 ± 0.004% and 0.0124%
- Excretion Amount, bile ([3]; 72–96 h): 2.0 ± 1.8 ng
- PU-48 Concentration in bile ([3]; 72–96 h): 1.4 ± 0.9 ng/mL
